From patent US20240238186A1, “Topical Compositions Comprising (Glyco)Sphingolipids and/or (Glyco)Ceramides” (CarboCode S.A., priority 2021, published 2024)

Tests used:
Type in all cases: cell-based
[1] = test system: Reconstructed Human Epidermis (RHE); experiment: Proteomic analysis (LC-MS/MS) of Reconstructed Human Epidermis topically treated with lipid in base emulsion; settings: lipid in base emulsion 24h, vs vehicle
Excerpt: FIGS. 1 to 5 show heatmaps using a log 2 scale with up- or downregulation of respective proteins upon treatment with 0,01% (01), 0,03% (03) and 0,15% (15) of respective ceramide in vehicle as compared to vehicle without ceramide (VEH) (FIG. 1: LacCerNS, FIG. 2: GlcCerNS, FIG. 3: CerNP. FIG. 4: CerNG, FIG. 5: CerNS); detailed experimental setup explained in Example 4.
Material and methods: Reconstructed Human Epidermis (RHE) cell culture was used, as this system mimics the in vivo 3D structure of epidermal tissue as well as the conditions and processes that occur in normal epidermis. RHE were cultured using the medium provided by the manufacturer until analysis. RHE were maintained in survival for 24 hours, before RHE were topically treated with lipid in a base emulsion for 24h. 3 RHE were treated with base emulsion alone and 3 more remained untreated as a control batch (Ctrl). RHE were incubated under classical cell culture conditions (37° C., 5% CO2).
Sample preparation and LC-MS/MS analysis: Protein was extracted using the Pierce Total Protein Extraction Kit (Thermo Fisher) according to manufacturer's recommendations. The protein was mixed with Laemmli buffer and heated to 37° ° C. for 30 min. Protein concentration was determined by the BCA method and standardized for all samples. The samples were separated by SDS-PAGE and digested with trypsin overnight. The peptides generated were acidified and separated. The mass spectra were queried using Proteome Discoverer (version 2.5). The resulting MS/MS data were queried against the Homo sapiens proteome UP000005640 (20371 reviewed entries). Results were filtered based on unique peptides >2, and global peptide scores. Analyses were performed using Proteome Discoverer 2.5 to check for overall sample quality.
Bioinformatics and statistical analysis: Proteomic analysis returned a mean total of 34961 high-quality peptides corresponding to a mean 2422 identifiable and quantifiable RHE proteins among conditions. A summary of proteins differentially expressed within conditions is provided in Annexe 3. Proteins with a p-value≤0,05 in at least one of the concentrations tested for a lipid were considered significant and used for pairwise comparisons. Relevant proteins were classified by their biological processes and associated pathways using the publicly available gene ontology (GO) database provided by the Gene Ontology Consortium and Reactome. Interactome analysis was performed using Cytoscape combined with STRING.

[2] = test system: Human epidermal keratinocytes; experiment: Ceramide levels produced by keratinocytes, HPTLC; settings: 200 ppm in DMSO, 1 week; compared to untreated keratinocytes
Procedure: (§1) Human epidermal keratinocytes are obtained from a commercial vendor. The cells are isolated from juvenile foreskin or from adult normal human tissue collected from various sites that include face, breast, abdomen, and thigh. The cells are cultivated in a T25 flask using a commercial keratinocyte Growth Medium which is a serum-free medium and optimized for the in vitro cultivation of epidermal keratinocytes without feeder cells. A commercial growth supplement and calcium is added to a final concentration of 1.2 mM to induce differentiation.
(§2) Upon reaching cell confluence, the cells are treated with either 200 ppm glucosylceramide or 200 ppm lactosylceramide, each dissolved in dimethyl sulfoxide (DMSO) for 1 week. The cells are homogenised with 2 mL chloroform:methanol (2:1), and transferred to a vial containing Phosphate Buffered Saline (PBS). The homogeniser is rinsed twice with solvent and all rinses are together. The organic phase is evaporated to dryness.
Ceramide levels produced by the keratinocytes are measured by a modified high-performance thin layer chromatography (HPTLC) method. […] The plates are stained with 3% copper acetate in 8% phosphoric acid and charred at 160° C. for the quantitation of ceramides. Quantification is performed against known quantities of Ceramide NP by laser scanning densitometry. Each plate is scanned at 425 nm and quantified using WinCATS software.

[3] = test system: Human epidermal keratinocytes; experiment: Gene expression in keratinocytes, qPCR; settings: 200 ppm in DMSO, 1 week
Procedure: as §1, §2
Gene expression is determined by isolating RNA samples from the keratinocytes using a Qiagen RNeasy kit with DNase I digestion. Reverse transcription is performed using a high-capacity cDNA kit, cDNA samples of 40 ng are used for qPCR. Taqman gene expression assay is purchased commercially, and the qPCR reaction is performed using a fast amplifier. […] Relative gene expression is calculated by comparative CT method.

Compound | phosphomevalonate kinase protein regulation [1] | proteins of the mitochondrial respiratory chain, regulation [1] | syndecan-1 protein regulation [1] | ATP synthase subunit delta (mitochondrial) regulation [1] | ATP synthase subunit g (mitochondrial) regulation [1] | ceramide synthase 4 protein regulation [1] | cytochrome c oxidase subunit 6C regulation [1] | ATP-dependent zinc metalloprotease YME1L1 regulation [1] | NAD-dependent malic enzyme (mitochondrial) regulation [1] | Total ceramides in keratinocytes [2] | IL8 gene expression [3] | TNF gene expression [3] | expression of the ABCA12 gene [3] | involucrin gene expression [3] | transglutaminase-1 gene expression [3] | β-glucocerebrosidase (GBA) expression [3] | other results
CCCCCCCCCCCCCCCCCC(=O)N[C@@H](CO)[C@H](O)[C@H](O)CCCCCCCCCCCCCC [ceramide NP] | upregulation | upregulation | upregulation |  |  |  |  |  |  |  |  |  |  |  |  |  | NADH dehydrogenase [ubiquinone] iron-sulfur protein 8 (mitochondrial) regulation [1]: upregulation; long-chain-fatty-acid-CoA ligase 3 protein regulation [1]: upregulation; phosphopantothenate-cysteine ligase protein regulation [1]: upregulation
CCCCCCCCCCCCCCCCCC(=O)N[C@@H](CO)[C@H](O)CCCCCCCCCCCCCCC [ceramide NG] | upregulation | upregulation |  | upregulation | upregulation | upregulation | upregulation |  |  |  |  |  |  |  |  |  | loricrin protein regulation [1]: upregulation; repetin protein regulation [1]: upregulation; small proline-rich protein 2D regulation [1]: upregulation
CCCCCCCCCCCCC/C=C/[C@@H](O)[C@H](CO)NC(=O)CCCCCCCCCCCCCCCCC [ceramide NS] | upregulation |  | upregulation |  |  |  |  |  |  |  |  |  |  |  |  |  | cornifin-B protein regulation [1]: upregulation; filaggrin-2 protein regulation [1]: upregulation; kallikrein-5 protein regulation [1]: upregulation
CCCCCCCCCCCCC/C=C/[C@@H](O)[C@H](CO[C@@H]1O[C@H](CO)[C@@H](O[C@@H]2O[C@H](CO)[C@H](O)[C@H](O)[C@H]2O)[C@H](O)[C@H]1O)NC(=O)CCCCCCCCCCCCCCCCC [lactosylceramide] | upregulation | upregulation | upregulation | upregulation | upregulation | upregulation | upregulation | upregulation | upregulation | elevated | reduced gene expression | reduced gene expression | increases | increase in expression | increase in expression | Up-regulation | cytochrome b-c1 complex subunit 9 regulation [1]: upregulation; cytochrome c oxidase subunit 2 regulation [1]: upregulation; cytochrome c oxidase subunit NDUFA4 regulation [1]: upregulation
CCCCCCCCCCCCC/C=C/[C@@H](O)[C@H](CO[C@@H]1O[C@H](CO)[C@@H](O)[C@H](O)[C@H]1O)NC(=O)CCCCCCCCCCCCCCCCC [glucosyl ceramide] | upregulation | upregulation |  | upregulation | upregulation |  | upregulation | upregulation | upregulation | elevated | reduced gene expression | reduced gene expression | increases | increase in expression | increase in expression | Up-regulation | 3-ketodihydrosphingosine reductase protein regulation [1]: upregulation; NADH dehydrogenase [ubiquinone] 1 alpha subcomplex subunit 8 regulation [1]: upregulation; NADH dehydrogenase [ubiquinone] iron-sulfur protein 2 (mitochondrial) regulation [1]: upregulation; acetyl-coenzyme A synthetase (cytoplasmic) protein regulation [1]: upregulation; malonate-CoA ligase ACSF3 (mitochondrial) protein regulation [1]: upregulation
